Assay results: the supplement of paper PMC10307832

Assays:
Assay in all cases: relative viability (nuclei count vs DMSO), 5 days (fraction); higher = more cells survive
CAL-12T = system: CAL-12T
Summary of the method: (§1)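 Relative viability equals treated-well nuclei counts divided by vehicle-well nuclei counts. Counts came from 4× images of lung cancer cell lines grown in 1536-well plates for 5 days after pin-tool dosing on the day after seeding. Dosing used one drug alone or a fixed anchor-drug dose plus five library-drug doses (not always all listed) in √10 steps, and values are medians of duplicate plates.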

ChaGo-K-1 = system: ChaGo-K-1
Summary of the method: as §1

HCC-366 = system: HCC-366
Summary of the method: as §1

HCC-78 = system: HCC-78
Summary of the method: as §1

LC-2-ad = system: LC-2-ad
Summary of the method: as §1

LOU-NH91 = system: LOU-NH91
Summary of the method: as §1

LU99A = system: LU99A
Summary of the method: as §1

NCI-H1395 = system: NCI-H1395
Summary of the method: as §1

NCI-H1651 = system: NCI-H1651
Summary of the method: as §1

NCI-H1755 = system: NCI-H1755
Summary of the method: as §1

NCI-H1793 = system: NCI-H1793
Summary of the method: as §1

NCI-H1944 = system: NCI-H1944
Summary of the method: as §1

NCI-H2087 = system: NCI-H2087
Summary of the method: as §1

NCI-H2170 = system: NCI-H2170
Summary of the method: as §1

NCI-H2228 = system: NCI-H2228
Summary of the method: as §1

NCI-H2405 = system: NCI-H2405
Summary of the method: as §1

NCI-H3122 = system: NCI-H3122
Summary of the method: as §1

NCI-H460 = system: NCI-H460
Summary of the method: as §1

PC-3 [JPC-3] = system: PC-3 [JPC-3]
Summary of the method: as §1

RERF-LC-KJ = system: RERF-LC-KJ
Summary of the method: as §1

UMC-11 = system: UMC-11
Summary of the method: as §1

## O=c1cc(-c2cccc3c2Sc2ccccc2S3)oc(N2CCOCC2)c1 + CC(=O)Nc1cccc(-n2c(=O)n(C3CC3)c(=O)c3c(Nc4ccc(I)cc4F)n(C)c(=O)c(C)c32)c1 [Trametinib] (partner 0.02 µM)
CAL-12T; first compound 0.08 µM
  relative viability: 0.297
CAL-12T; first compound 0.253 µM
  relative viability: 0.333
CAL-12T; first compound 0.8 µM
  relative viability: 0.305
CAL-12T; first compound 2.53 µM
  relative viability: 0.263
CAL-12T; first compound 8 µM
  relative viability: 0.246
ChaGo-K-1; first compound 0.08 µM
  relative viability: 0.862
ChaGo-K-1; first compound 0.253 µM
  relative viability: 0.935
ChaGo-K-1; first compound 0.8 µM
  relative viability: 0.894
ChaGo-K-1; first compound 2.53 µM
  relative viability: 0.908
ChaGo-K-1; first compound 8 µM
  relative viability: 0.955
HCC-366; first compound 0.08 µM
  relative viability: 0.31
HCC-366; first compound 0.253 µM
  relative viability: 0.474
HCC-366; first compound 0.8 µM
  relative viability: 0.339
HCC-366; first compound 2.53 µM
  relative viability: 0.33
HCC-366; first compound 8 µM
  relative viability: 0.284
HCC-78; first compound 0.08 µM
  relative viability: 0.712
HCC-78; first compound 0.253 µM
  relative viability: 1.03
HCC-78; first compound 0.8 µM
  relative viability: 0.677
HCC-78; first compound 2.53 µM
  relative viability: 0.786
HCC-78; first compound 8 µM
  relative viability: 0.544
LC-2-ad; first compound 0.08 µM
  relative viability: 0.882
LC-2-ad; first compound 0.253 µM
  relative viability: 0.967
LC-2-ad; first compound 0.8 µM
  relative viability: 0.93
LC-2-ad; first compound 2.53 µM
  relative viability: 0.858
LC-2-ad; first compound 8 µM
  relative viability: 0.858
LOU-NH91; first compound 0.08 µM
  relative viability: 0.772
LOU-NH91; first compound 0.253 µM
  relative viability: 0.884
LOU-NH91; first compound 0.8 µM
  relative viability: 0.732
LOU-NH91; first compound 2.53 µM
  relative viability: 0.719
LOU-NH91; first compound 8 µM
  relative viability: 0.777
LU99A; first compound 0.08 µM
  relative viability: 0.531
LU99A; first compound 0.253 µM
  relative viability: 0.624
LU99A; first compound 0.8 µM
  relative viability: 0.553
LU99A; first compound 2.53 µM
  relative viability: 0.538
LU99A; first compound 8 µM
  relative viability: 0.52
NCI-H1395; first compound 0.08 µM
  relative viability: 0.883
NCI-H1395; first compound 0.253 µM
  relative viability: 1.05
NCI-H1395; first compound 0.8 µM
  relative viability: 1.14
NCI-H1395; first compound 2.53 µM
  relative viability: 0.964
NCI-H1395; first compound 8 µM
  relative viability: 1.06
NCI-H1651; first compound 0.08 µM
  relative viability: 0.906
NCI-H1651; first compound 0.253 µM
  relative viability: 0.709
NCI-H1651; first compound 0.8 µM
  relative viability: 0.843
NCI-H1651; first compound 2.53 µM
  relative viability: 0.803
NCI-H1651; first compound 8 µM
  relative viability: 0.832
NCI-H1755; first compound 0.08 µM
  relative viability: 0.739
NCI-H1755; first compound 0.253 µM
  relative viability: 0.867
NCI-H1755; first compound 0.8 µM
  relative viability: 0.732
NCI-H1755; first compound 2.53 µM
  relative viability: 0.789
NCI-H1755; first compound 8 µM
  relative viability: 0.787
NCI-H1793; first compound 0.08 µM
  relative viability: 0.262
NCI-H1793; first compound 0.253 µM
  relative viability: 0.458
NCI-H1793; first compound 0.8 µM
  relative viability: 0.448
NCI-H1793; first compound 2.53 µM
  relative viability: 0.376
NCI-H1793; first compound 8 µM
  relative viability: 0.346
NCI-H1944; first compound 0.08 µM
  relative viability: 0.365
NCI-H1944; first compound 0.253 µM
  relative viability: 0.414
NCI-H1944; first compound 0.8 µM
  relative viability: 0.396
NCI-H1944; first compound 2.53 µM
  relative viability: 0.428
NCI-H1944; first compound 8 µM
  relative viability: 0.428
NCI-H2087; first compound 0.08 µM
  relative viability: 0.143
NCI-H2087; first compound 0.253 µM
  relative viability: 0.212
NCI-H2087; first compound 0.8 µM
  relative viability: 0.172
NCI-H2087; first compound 2.53 µM
  relative viability: 0.172
NCI-H2087; first compound 8 µM
  relative viability: 0.179
NCI-H2170; first compound 0.08 µM
  relative viability: 0.996
NCI-H2170; first compound 0.253 µM
  relative viability: 1.08
NCI-H2170; first compound 0.8 µM
  relative viability: 1.06
NCI-H2170; first compound 2.53 µM
  relative viability: 0.816
NCI-H2170; first compound 8 µM
  relative viability: 1.01
NCI-H2228; first compound 0.08 µM
  relative viability: 0.554
NCI-H2228; first compound 0.253 µM
  relative viability: 0.72
NCI-H2228; first compound 0.8 µM
  relative viability: 0.582
NCI-H2228; first compound 2.53 µM
  relative viability: 0.416
NCI-H2228; first compound 8 µM
  relative viability: 0.447
NCI-H2405; first compound 0.08 µM
  relative viability: 0.589
NCI-H2405; first compound 0.253 µM
  relative viability: 0.673
NCI-H2405; first compound 0.8 µM
  relative viability: 0.599
NCI-H2405; first compound 2.53 µM
  relative viability: 0.534
NCI-H2405; first compound 8 µM
  relative viability: 0.577
NCI-H3122; first compound 0.08 µM
  relative viability: 0.259
NCI-H3122; first compound 0.253 µM
  relative viability: 0.299
NCI-H3122; first compound 0.8 µM
  relative viability: 0.314
NCI-H3122; first compound 2.53 µM
  relative viability: 0.193
NCI-H3122; first compound 8 µM
  relative viability: 0.292
NCI-H460; first compound 0.08 µM
  relative viability: 0.147
NCI-H460; first compound 0.253 µM
  relative viability: 0.163
NCI-H460; first compound 0.8 µM
  relative viability: 0.113
NCI-H460; first compound 2.53 µM
  relative viability: 0.091
NCI-H460; first compound 8 µM
  relative viability: 0.1
PC-3 [JPC-3]; first compound 0.08 µM
  relative viability: 0.542
PC-3 [JPC-3]; first compound 0.253 µM
  relative viability: 0.732
PC-3 [JPC-3]; first compound 0.8 µM
  relative viability: 0.53
PC-3 [JPC-3]; first compound 2.53 µM
  relative viability: 0.617
PC-3 [JPC-3]; first compound 8 µM
  relative viability: 0.673
RERF-LC-KJ; first compound 0.08 µM
  relative viability: 0.79
RERF-LC-KJ; first compound 0.253 µM
  relative viability: 0.856
RERF-LC-KJ; first compound 0.8 µM
  relative viability: 0.89
RERF-LC-KJ; first compound 2.53 µM
  relative viability: 0.895
RERF-LC-KJ; first compound 8 µM
  relative viability: 0.784
UMC-11; first compound 0.08 µM
  relative viability: 0.719
UMC-11; first compound 0.253 µM
  relative viability: 0.827
UMC-11; first compound 0.8 µM
  relative viability: 0.78
UMC-11; first compound 2.53 µM
  relative viability: 0.638
UMC-11; first compound 8 µM
  relative viability: 1.03
